{"source": "patent US20260283996A1", "about": "“DECANOIC ACID AND ITS COMPOSITIONS FOR USE IN THE PREVENTION AND/OR TREATMENT OF PEROXISOMAL DISORDERS” (SOCIÉTÉ DES PRODUITS NESTLÉ S.A., priority 2023, published 2026)", "type_in_all_cases": "cell-based", "key": {"[1]": {"tested_on": "SH-SY5Y cells", "assay": "peroxisomal fatty acid beta oxidation (chain shortening of C22 to C18, C16 and C14) in SH-SY5Y cells", "conditions": "250 μM, 6 days, chain shortening of C22 to C18, C16 and C14 (FIG. 1C)", "procedure": "(§1) SH-SY5Y cells were stored frozen and cells with passage numbers between 20 and 24 were utilized. When required, SH-SY5Y cells were thawed at 20-25° C. and quickly seeded at a density of 13.3×10^3 cell/cm^2 in 75 cm^2 flasks. SH-SY5Y cells were then grown in media containing 1:1 DMEM/F-12+100 mL/L FBS+10 mL/L I-glutamine at +37° C. and 5% CO2. SH-SY5Y cells were exposed to 250 μM decanoic acid (C10) or octanoic acid (C8) for 6 days.\n(§2) To assess effects upon peroxisomal content and function, the following parameters were studied; (a) activity of the peroxisomal marker enzyme, acyl CoA oxidase, (b) expression of Pex11a, a gene associated with peroxisomal biogenesis and (c) evaluation of peroxisomal fatty acid beta oxidation by monitoring the chain shortening of a very long chain fatty acid, C22, to C18, C16 and C14."}, "[2]": {"tested_on": "acyl CoA oxidase", "assay": "acyl CoA oxidase activity in SH-SY5Y cells", "conditions": "250 μM, 6 days (FIG. 1A)", "procedure": "as §1, §2"}, "[3]": {"tested_on": "Pex11a", "assay": "expression of Pex11a in SH-SY5Y cells", "conditions": "250 μM, 6 days (FIG. 1B)", "procedure": "as §1, §2"}}}
{"compound": "CCCCCCCCCC(=O)O", "note": "[C10, Decanoic acid]", "values": [{"measurement": "capacity to perform peroxisomal beta oxidation", "setting": "[1]", "result": "increased capacity to perform peroxisomal beta oxidation"}, {"measurement": "acyl CoA oxidase activity", "setting": "[2]", "result": "increase in acyl CoA oxidase activity"}, {"measurement": "Pex11a expression", "setting": "[3]", "result": "increased Pex11a"}]}
